The results in this text go back to patent US12521395B2, “Gem-disubstituted heterocyclic compounds and their use as IDH inhibitors” (NERVIANO MEDICAL SCIENCES S.R.L., priority 2019, dated 2026).

Where two headings read alike, the source gives them in different places.

Test [1] concerns the target IDH1 wild type enzyme (Homo sapiens, UniProt O75874). Description: Enzymatic assay for IDH1 wild-type (NADPH forming assay). It is filed as biochemical. Particulars: 0.016 nM IDH1WT, 15 min preincubation. The procedure:
IDH1WT enzymatic activity converting isocitric acid to alpha-ketoglutarate is measured using a NADPH forming assay. In the assay the forming cofactor is measured in continuous with the addition of a catalytic excess of diaphorase and resazurin, to generate a fluorescent signal in proportion to the amount of NADPH forming.
Compounds were preincubated with the enzyme, then the reaction was started by the addition of NADP+, isocitrate, diaphorase and a corresponding substrate, resazurin. Diaphorase reduces resazurin to the highly fluorescent resorufin with the concomitant oxidation of NADPH to NADP. Specifically, 0.2 μL of test compound, previously serially diluted 1 to 3, >10 experimental points from 1 mM in DMSO, was added to 0.016 nM IDH1WT enzyme in 10 μL of Assay Buffer (150 mM NaCl, 50 mM Tris-HCl pH 7.6, 10 mM MgCl2, 0.001% Triton X-100, 4 mM β-mercaptoethanol); the mixture is incubated for 15 minutes at room temperature. The reaction is started with the addition of 10 μL of Substrate Mix (400 μM NADP^+, 40 μM iso-citrate, 5 ugr/mL Diaphorase and 7 μM resazurin in Assay Buffer), the mixture is incubated at room temperature and the reaction is reading on a ViewLux as platereader at Ex544/Em590 in continuous.

Test [2] deals with IDH1^R132H (Homo sapiens, UniProt O75874, R132H). Description: NADPH depletion assay (diaphorase/resazurin), IDH1 R132H. Particulars: 15 min preincubation, 60 min reaction, room temperature. It is filed as biochemical. On the procedure: (§1) IDH mutated enzyme activity converting alpha-ketoglutarate to 2-hydroxyglutaric acid is measured using a NADPH depletion assay. In the assay the remaining cofactor is measured at the end of the reaction with the addition of a catalytic excess of diaphorase and resazurin, to generate a fluorescent signal in proportion to the amount of NADPH remaining. IDH1 WT enzyme as well as mutated isoforms IDH1^R132H, IDH1^R132C, and IDH2^R172K enzymes are commercially available proteins (see e.g. Sino Biological, Abcam, Active Motif or Creative BioMart).
(§2) IDH1^R132H homodimer enzyme are diluted to 8 nM, in 10 μL of Assay Buffer (150 mM NaCl, 50 mM Tris-HCl pH 7.6, 10 mM MgCl2, 0.001% Triton X-100, 4 mM β-mercaptoethanol); 0.2 μL of test compound, previously serially diluted 1 to 3, >10 experimental points from 1 mM in DMSO, is added and the mixture is incubated for 15 minutes at room temperature. The reaction is started with the addition of 10 μL of Substrate Mix (12 μM NADPH, 3.4 mM alpha-ketoglutarate in Assay Buffer) and the mixture is incubated for 60 minutes at room temperature. The reaction is terminated with the addition of 5 μl of Detection Buffer (100 μg/mL diaphorase, 30 μM resazurin, in IX Assay Buffer), and is incubated for 15 minutes before reading on a ViewLux as platereader at Ex544/Em590.
In general terms: Alamar Blue is a resazurin reagent that responds to reducing activity.

In test [3] the test system is cell lines HT-1080 (IDH1^R132C). Description: Cellular assay: inhibition of 2HG production, LC-MS/MS. It is filed as cell-based. Particulars: Homo sapiens, 72 hr incubation, 2-HG in cell culture media, read-out: HT1080 2-HG IC50. On the procedure: Cell lines HT-1080 (commercially available) are maintained in E-MEM 10% FCS and incubated at 37° C. in a humidified 5% CO2 atmosphere.
Cells are seeded into 96 well black flat bottom plates at a density of 500 cells/well in 100 μL complete medium. After 24 hr the medium is replaced with 200 μL of fresh medium and compounds (dissolved into DMSO) are administrated to the cells using D300E Digital Dispenser (Tecan).
After 72 hr of incubation 100 μL from each well are collected and used for 2HG (R(−)-2-hydroxyglutarate) quantification. Levels of 2-HG in cell culture media are determined by LC-MS/MS. Cell supernatants (100 μL/well) are treated with 1 M aqueous trichloroacetic acid containing 130 μM of the internal standard 2-HG-d3 (20 μL/well) in a 96-well plate. The plates are sealed, mildly vortexed for 60 minutes, centrifuged at 4,000 RPM for 15 minutes, placed in a refrigerated autosampler taking care not to shake them, and aliquots of the upper part of the samples are directly injected in the chromatographic system. Calibration standards are obtained by ten folds dilution of aqueous 2-HG stock solutions with blank cell culture medium and denatured exactly in the same way as described above for samples. Samples and standards are assayed for 2-HG by reversed phase chromatography on a C18 column eluted with aqueous 0.15% formic acid and briefly washed with 90% methanol at the end of the run. 2-HG is determined by negative ion electrospray ionization with the internal standard method on a triple quadrupole mass spectrometer monitoring the MRM transitions 147>129 (2-HG) and 150>132 (2-HG-d3).
2-HG inhibition was calculated by comparing treated versus control data using Assay Explore (Symyx) software, with IC50 determined using a sigmoidal fitting algorithm.

For test [4], the target named is T1, IDH2^R172K (Homo sapiens, UniProt P48735, R172K).
T1 sequence (P48735 40-452 R172K): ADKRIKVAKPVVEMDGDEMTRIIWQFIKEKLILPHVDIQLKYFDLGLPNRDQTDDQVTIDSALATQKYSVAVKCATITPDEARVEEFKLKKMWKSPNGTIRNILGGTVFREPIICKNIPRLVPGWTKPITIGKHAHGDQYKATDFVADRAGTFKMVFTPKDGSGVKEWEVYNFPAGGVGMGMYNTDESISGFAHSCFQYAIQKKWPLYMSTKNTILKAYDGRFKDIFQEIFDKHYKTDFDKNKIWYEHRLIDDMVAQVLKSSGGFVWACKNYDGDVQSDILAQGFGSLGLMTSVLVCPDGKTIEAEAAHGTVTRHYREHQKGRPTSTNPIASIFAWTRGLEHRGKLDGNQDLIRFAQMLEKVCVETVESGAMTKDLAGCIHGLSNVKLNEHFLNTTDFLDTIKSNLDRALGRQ
Kind of test: NADPH depletion assay (diaphorase/resazurin), IDH2 R172K. The test is classed as biochemical. Particulars: IDH2^R172K 16 nM, alpha-ketoglutarate 0.55 mM. On the procedure: as §1, §2
Compounds are assayed for their activity against IDH2^R172K following the same assay as above with the following modifications: IDH2^R172K and alpha-ketoglutarate final concentrations in the Assay Buffer is 16 nM and 0.55 mM, respectively.

In test [5] the target is IDH1^R132C (Homo sapiens, UniProt O75874, R132C). Kind of test: NADPH depletion assay (diaphorase/resazurin), IDH1 R132C. It is filed as biochemical. On the procedure:
as §1, §2
Compounds are assayed for their activity against IDH1^R132C following the same assay as above with the following modifications: IDH1^R132C and alpha-ketoglutarate final concentrations in the Assay Buffer is 2 nM and 0.14 mM, respectively.

Where [6] appears, read: IDH1^R132C 2 nM, alpha-ketoglutarate 0.14 mM, read-out: IDH1^R132C IC50.

Sequence of IDH1^R132C (O75874 whole entry R132C): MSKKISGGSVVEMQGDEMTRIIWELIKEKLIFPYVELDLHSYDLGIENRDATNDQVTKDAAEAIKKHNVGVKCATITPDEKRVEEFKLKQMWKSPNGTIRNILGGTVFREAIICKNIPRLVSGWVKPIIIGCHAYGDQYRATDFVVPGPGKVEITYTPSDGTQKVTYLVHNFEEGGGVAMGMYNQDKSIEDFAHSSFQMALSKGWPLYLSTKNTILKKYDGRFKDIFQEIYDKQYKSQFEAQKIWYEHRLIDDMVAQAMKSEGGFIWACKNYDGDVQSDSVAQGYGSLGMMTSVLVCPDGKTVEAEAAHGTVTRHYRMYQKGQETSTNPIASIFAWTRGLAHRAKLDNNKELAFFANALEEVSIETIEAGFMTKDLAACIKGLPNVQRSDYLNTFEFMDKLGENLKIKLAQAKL
Sequence of IDH1 wild type enzyme (O75874 whole entry): as the sequence (O75874 whole entry R132C) above, with C132R counted along it
Sequence of IDH1^R132H (O75874 whole entry R132H, canonical isoform): as the sequence (O75874 whole entry R132C) above, with C132H counted along it

As to `C=CC(=O)N1CCN(C2(c3ccc([C@H](C)Nc4ncc5ccc(=O)n(C(C)C)c5n4)cc3)CCOCC2)CC1` [cpd 1, 2-{[(1S)-1-{4-[4-(4-acryloylpiperazin-1-yl)tetrahydro-2H-pyran-4-yl]phenyl}ethyl]amino}-8-(propan-2-yl)pyrido[2,3-d]pyrimidin-7(8H)-one], the IC50 (usually the midpoint of a concentration-inhibition curve) in test [1] came out at 133 nM; in test [2] it was 3.5 nM; in test [3] it was 2.4 nM; in test [4], 111 nM; in test [5] (setting [6]) it was 3.3 nM.

Turning to `C=CC(=O)N1CCN(C2(c3ccc([C@H](C)Nc4ncc5ccc(=O)n(C(C)C)c5n4)cc3)CCC(F)(F)CC2)CC1` [cpd 26, 2-{[(1S)-1-{4-[1-(4-acryloylpiperazin-1-yl)-4,4-difluorocyclohexyl]phenyl}ethyl]amino}-8-(propan-2-yl)pyrido[2,3-d]pyrimidin-7(8H)-one], the concentration for half-maximal inhibition (IC50) in test [1] is 126 nM; in test [2], 3 nM; in test [3], 0.5 nM; in test [4], 126 nM; in test [5] (setting [6]) it was 2 nM.

`C=CC(=O)N1CCN(C(CC)(CC)c2ccc([C@H](C)Nc3ncc4ccc(=O)n(C(C)C)c4n3)cc2)CC1` [cpd 4, 2-{[(1S)-1-{4-[3-(4-acryloylpiperazin-1-yl)pentan-3-yl]phenyl}ethyl]amino}-8-(propan-2-yl)pyrido[2,3-d]pyrimidin-7(8H)-one]: the 50% inhibitory concentration (IC50) in test [1] stood at 313 nM; in test [2], 3.8 nM; in test [3], 0.6 nM; in test [4] it was 22.8 nM; in test [5] (setting [6]), 1.7 nM.

For `C=CC(=O)N1CCN(C2(c3ccc([C@H](C)Nc4cc5c(ccc(=O)n5C(C)C)cn4)cc3)CCOCC2)CC1` [cpd 11, 7-{[(1S)-1-{4-[4-(4-acryloylpiperazin-1-yl)tetrahydro-2H-pyran-4-yl]phenyl}ethyl]amino}-1-(propan-2-yl)-1,6-naphthyridin-2(1H)-one], the IC50 amounted to 364 nM in test [1]; 6.4 nM in test [2]; 2.6 nM in test [3]; 291 nM in test [4]; 4.8 nM in test [5] (setting [6]).

As for `C=CC(=O)N1CCN([C@@](C)(CN2CCOCC2)c2ccc([C@H](C)Nc3ncc4ccc(=O)n(C(C)C)c4n3)cc2)CC1` [cpd 43, 2-{[(1S)-1-{4-[(2R)-2-(4-acryloylpiperazin-1-yl)-1-(morpholin-4-yl)propan-2-yl]phenyl}ethyl]amino}-8-(propan-2-yl) pyrido[2,3-d]pyrimidin-7(8H)-one], the values for the IC50 in test [3] and in test [5] (setting [6]) were 3 nM and 15 nM, respectively.

As for `C=CC(=O)N1CCN(C2(c3ccc([C@H](C)Nc4ncc5ccc(=O)n(C(C)C)c5n4)cn3)CCOCC2)CC1` [cpd 12, 2-{[(1S)-1-{6-[4-(4-acryloylpiperazin-1-yl)tetrahydro-2H-pyran-4-yl]pyridin-3-yl}ethyl]amino}-8-(propan-2-yl)pyrido[2,3-d]pyrimidin-7(8H)-one], the IC50 was determined as 34 nM in test [3] and 117 nM in test [5] (setting [6]).

Take `C=CC(=O)N1CCN(C2(c3ccc([C@H](C)Nc4ncc5ccc(=O)n(C(C)C)c5n4)cc3)CCCCC2)CC1` [cpd 20, 2-{[(1S)-1-{4-[1-(4-acryloylpiperazin-1-yl)cyclohexyl]phenyl}ethyl]amino}-8-(propan-2-yl)pyrido[2,3-d]pyrimidin-7(8H)-one]: the IC50 in test [3] and in test [5] was 1 nM each time.

On to `C=CC(=O)N1CCN(C2(c3ccc([C@H](C)Nc4ncc5ccc(=O)n(C(C)C)c5n4)cc3)CCOC2)CC1` (stereo partly drawn) [cpd 17, 2-{[(1S)-1-{4-[3-(4-acryloylpiperazin-1-yl)tetrahydrofuran-3-yl]phenyl}ethyl]amino}-8-(propan-2-yl)pyrido[2,3-d]pyrimidin-7(8H)-one], for which the IC50 in test [3] stood at 4.9 nM; in test [5] (setting [6]), 25.7 nM.

Consider `C=CC(=O)N1CC(N(C)C2(c3ccc([C@H](C)Nc4ncc5ccc(=O)n(C(C)C)c5n4)cc3)CCOCC2)C1` [cpd 28, 2-{[(1S)-1-(4-{4-[(1-acryloylazetidin-3-yl)(methyl)amino]tetrahydro-2H-pyran-4-yl}phenyl)ethyl]amino}-8-(propan-2-yl) pyrido[2,3-d]pyrimidin-7(8H)-one], for which the IC50 was found to be 47 nM in test [3] and 26 nM in test [5] (setting [6]).

On to `C=CC(=O)N1CCN(C2(c3ccc([C@@H](C)Nc4ncc5ccc(=O)n(C(C)C)c5n4)cc3)CCOCC2)CC1` [cpd 9, 2-{[(1R)-1-{4-[4-(4-acryloylpiperazin-1-yl)tetrahydro-2H-pyran-4-yl]phenyl}ethyl]amino}-8-(propan-2-yl)pyrido[2,3-d]pyrimidin-7(8H)-one], for which the results for the 50% inhibitory concentration (IC50) in test [3] and in test [5] (setting [6]) were 67 nM and 125 nM, respectively.

As for `CCC(=O)N1CCN(C2(c3ccc([C@H](C)Nc4ncc5ccc(=O)n(C(C)C)c5n4)cc3)CCOCC2)CC1` [cpd 8, 2-{[(1S)-1-{4-[4-(4-propanoylpiperazin-1-yl)tetrahydro-2H-pyran-4-yl]phenyl}ethyl]amino}-8-(propan-2-yl)pyrido[2,3-d]pyrimidin-7(8H)-one], the IC50 is 1930 nM in test [3] and 1320 nM in test [5] (setting [6]).

Regarding `C=CC(=O)N1CCN(C2(c3ccc([C@H](C)Nc4ncc5c(n4)N(CC)C(=O)OC5)cc3)CCOCC2)CC1` [cpd 24, 7-{[(1S)-1-{4-[4-(4-acryloylpiperazin-1-yl)tetrahydro-2H-pyran-4-yl]phenyl}ethyl]amino}-1-ethyl-1,4-dihydro-2H-pyrimido[4,5-d][1,3]oxazin-2-one], the half-maximal inhibitory concentration (IC50) in test [3] was found to be 2.1 nM; in test [5] (setting [6]), 3 nM.
